For experiment [1], the system named is primary human mesenchymal stem cells (hMSCs). Briefly: Chondrogenesis induction in hMSCs (chondrogenic nodules). Type of experiment: cell-based. The settings on record: 144 h, 6 days; for EC50: concentration required to induce 50% levels of chondrogenesis vs TGF-β3, read-out: Conc (nM) of 50% TGF-β3 activity; for Emax: nodules, relative to TGF-β3 positive control (10 ng/mL), read-out: Max. Activity as % TGF-β3 activity. The protocol:
Representative compounds were screened using primary human mesenchymal stem cells (hMSCs) to determine their ability to induce chondrogenesis (process by which cartilage is developed).
Primary human mesenchymal stem cells (hMSCs) were purchased from Lonza (Walkersville, Md.) and expanded in Mesenchymal Stem Cell Growth Media (Lonza). Cells between passage 3 and 6 were used for the experiments.
Each compound was dissolved in DMSO as a 10 mM stock and used to prepare compound source plates. Serial dilution (1:3, 6-point dose-response curves from 2700 nM to 10 nM) and compound transfer was performed using the ECHO 550 (Labcyte, Sunnyvale, Calif.) into 96-well clear bottom assay plates (Greiner Bio-One) with appropriate DMSO backfill for a final DMSO concentration of 0.03%. hMSCs were plated at 20,000 cells/well in 250 μL/well Incomplete Chondrogenic Induction Medium (Lonza; DMEM, dexamethasone, ascorbate, insulin-transferrin-selenium [ITS supplement], gentamycin-amphotericin [GA-1000], sodium pyruvate, proline and L-glutamine). TGF-03 (10 ng/mL) was used as a positive control for differentiation while negative control wells were treated with 75 nL DMSO for normalization and calculating EC50 values. Cells were incubated at 37° C. and 5% CO2 for 6 days. To image chondrogenic nodules, the cells were fixed using 4% formaldehyde (Electron Microscopy Sciences), and stained with 2 μg/mL Rhodamine B (Sigma-Aldrich) and 20 μM Nile Red (Sigma-Aldrich) [Johnson K., et. al, A Stem Cell-Based Approach to Cartilage Repair, Science, (2012), 336(6082), 717-721]. The nodules imaged (4 images per well at 4× magnification) by excitation at 531 nm and emission at 625 nm and quantified using the CellInsight CX5 (Thermo Scientific). Number of nodules in each well was normalized to the average of 3 DMSO treated wells on the same plate using Excel (Microsoft Inc.). The normalized averages (fold change over DMSO) of 3 replicate wells for each compound concentration were calculated. Due to solubility limitations of some of the compounds, curve fitting was incomplete leading to inaccurate EC50 determinations.
Using TGF-β3 as a positive control, the concentration of representative compounds required to induce 50% levels of chondrogenesis is reported. In addition, the maximum activity of each compound and the respective dose that each compound reached maximum chondrogenesis activity is reported.

The subject of experiment [2] is IL-6. Nature of the experiment: IL-6 inhibition in LPS-stimulated THP-1 cells (HTRF). The format is cell-based. The settings on record: Homo sapiens, LPS 500 ng/mL, 22 hours, IL6 HTRF. The procedure, abridged:
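THP-1 monocytes, serum-reduced (1% FBS) for 24 h, were preincubated 2 h with compound at 0.1% DMSO (10-point, 1:3 dilutions from 10 μM), then stimulated with 500 ng/mL LPS for 22 h at 37 °C. IL-6 was quantified by HTRF (665/620 nm ratio), normalized to DMSO. EC50 came from 4-parameter regression, or % inhibition at 10 μM.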

pEC50: −log10 of the molar value.

Consider `CS(=O)(=O)NCc1cc(F)cc(-c2cncc3[nH]c(-c4n[nH]c5ccc(-c6cncc(CN7CCCCC7)c6)nc45)cc23)c1` [Compound 491, N-(3-Fluoro-5-(2-(5-(5-(piperidin-1-ylmethyl)pyridin-3-yl)-1H-pyrazolo[4,3-b]pyridin-3-yl)-1H-pyrrolo[2,3-c]pyridin-4-yl)benzyl)methanesulfonamide], for which, in experiment [1], the EC50 was 10 nM and the Emax was 83%. Also, the pEC50 in experiment [2] was 6.67.
The matching figures for `CS(=O)(=O)NCc1cc(F)cc(-c2cncc3[nH]c(-c4n[nH]c5ccc(-c6cncnc6)nc45)cc23)c1` [Compound 503, N-(3-Fluoro-5-(2-(5-(pyrimidin-5-yl)-1H-pyrazolo[4,3-b]pyridin-3-yl)-1H-pyrrolo[2,3-c]pyridin-4-yl)benzyl)methane sulfonamide]: 10 nM, 106% and 6.19.
The matching figures for `CS(=O)(=O)NCc1cc(F)cc(-c2cncc3[nH]c(-c4n[nH]c5ccc(-c6ccccn6)nc45)cc23)c1` [Compound 504, N-(3-Fluoro-5-(2-(5-(pyridin-2-yl)-1H-pyrazolo[4,3-b]pyridin-3-yl)-1H-pyrrolo[2,3-c]pyridin-4-yl)benzyl)methanesulfonamide]: 300 nM, 99% and 7.51.
For `Fc1cccc(-c2cncc3[nH]c(-c4n[nH]c5ccc(C6CCNCC6)nc45)cc23)c1` [Compound 505, 3-(4-(3-Fluorophenyl)-1H-pyrrolo[2,3-c]pyridin-2-yl)-5-(piperidin-4-yl)-1H-pyrazolo[4,3-b]pyridine], in that order: 2700 nM, 103% and 5.96.
`Fc1ccccc1-c1cncc2[nH]c(-c3n[nH]c4ccc(-c5cn[nH]c5)nc34)cc12` [Compound 539, 3-(4-(2-Fluorophenyl)-1H-pyrrolo[2,3-c]pyridin-2-yl)-5-(1H-pyrazol-4-yl)-1H-pyrazolo[4,3-b]pyridine]: the Emax in experiment [1] is 40%. This compound also gave a pEC50 in experiment [2] of 6.80.
Consider `Cn1cc(-c2ccc3[nH]nc(-c4cc5c(-c6cccnc6)cncc5[nH]4)c3n2)cn1` [Compound 556, 5-(1-Methyl-1H-pyrazol-4-yl)-3-(4-(pyridin-3-yl)-1H-pyrrolo[2,3-c]pyridin-2-yl)-1H-pyrazolo[4,3-b]pyridine], for which, in experiment [1], the EC50 came to 10 nM and the Emax came out at 52%. Also, the negative-log EC50 (pEC50) in experiment [2] is 5.43.
